Data taken from ChEMBL document CHEMBL4118084, “Chemical Approaches to Intervening in Ubiquitin Specific Protease 7 (USP7) Function for Oncology and Immune Oncology Therapies” (J Med Chem, 2018).
pIC50: −log10 of the molar value.

Key:
[1] = target: T1, Ubiquitin carboxyl-terminal hydrolase 7 (Homo sapiens, UniProt Q93009); assay: Inhibition of USP7 (unknown origin)
[2] = target: T1, Ubiquitin carboxyl-terminal hydrolase 7; assay: Inhibition of USP7 (unknown origin) using Ub-Rh110 as substrate by fluorescence based assay
[3] = target: T1, Ubiquitin carboxyl-terminal hydrolase 7; assay: Inhibition of human recombinant 6His-tagged USP7 using Ub-Rh110 as substrate preincubated for 30 mins followed by substrate addition measured after 180 mins by fluorometric analysis
[4] = target: T2, Ubiquitin carboxyl-terminal hydrolase 2 (Homo sapiens, UniProt O75604); assay: Inhibition of USP2 (unknown origin)
T2 sequence (O75604 whole entry): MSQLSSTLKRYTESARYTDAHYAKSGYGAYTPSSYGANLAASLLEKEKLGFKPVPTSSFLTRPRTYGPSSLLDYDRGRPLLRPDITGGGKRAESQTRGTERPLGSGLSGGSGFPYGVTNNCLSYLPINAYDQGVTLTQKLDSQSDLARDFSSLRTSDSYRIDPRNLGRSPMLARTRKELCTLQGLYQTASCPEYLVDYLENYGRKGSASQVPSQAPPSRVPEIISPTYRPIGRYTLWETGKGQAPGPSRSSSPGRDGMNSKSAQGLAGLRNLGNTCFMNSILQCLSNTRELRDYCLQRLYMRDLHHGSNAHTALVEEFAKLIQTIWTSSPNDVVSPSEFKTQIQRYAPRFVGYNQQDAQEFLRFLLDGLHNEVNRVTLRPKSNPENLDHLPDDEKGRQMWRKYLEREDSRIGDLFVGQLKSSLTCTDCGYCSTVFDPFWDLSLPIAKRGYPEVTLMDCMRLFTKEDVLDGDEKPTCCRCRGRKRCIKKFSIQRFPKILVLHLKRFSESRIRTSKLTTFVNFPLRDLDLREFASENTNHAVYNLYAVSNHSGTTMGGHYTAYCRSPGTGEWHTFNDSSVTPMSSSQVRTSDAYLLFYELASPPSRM

[5] = target: T1, Ubiquitin carboxyl-terminal hydrolase 7; assay: Inhibition of USP7 (unknown origin) using human N-terminal GST-tagged UBA52 as substrate preincubated for 10 mins followed by substrate addition measured after 45 mins by coomassie brilliant blue staining-based SDS-PAGE analysis
[6] = target: T1, Ubiquitin carboxyl-terminal hydrolase 7; assay: Inhibition of full-length native C-terminal USP7 (unknown origin) using Ub-Rho110 as substrate after 1 hr by fluorescence assay
[7] = target: T1, Ubiquitin carboxyl-terminal hydrolase 7; assay: Inhibition of USP7 in human SJSA cells assessed as increase in ubiquitinated MDM2 level after 20 hrs in presence of MG132 by MSD assay; type: cell-based
[8] = target: T1, Ubiquitin carboxyl-terminal hydrolase 7; assay: Inhibition of full-length recombinant USP7 (unknown origin) expressed in Sf9 cells using Ub-EKL as substrate preincubated for 30 mins followed by substrate addition by fluorescence based assay
[9] = Inhibition of mouse CD4+/CD25+ Treg cells-mediated suppression of CD3-stimulated T-effector cell proliferation after 72 hrs by CellTrace violet dye-based assay; type: functional
[10] = target: T1, Ubiquitin carboxyl-terminal hydrolase 7; assay: Inhibition of full-length USP7 (unknown origin) using Ub-AMC as substrate preincubated for 20 mins followed by substrate addition measured after 50 mins
[11] = target: T3, Ubiquitin carboxyl-terminal hydrolase 47 (Homo sapiens, UniProt Q96K76); assay: Inhibition of USP47 (unknown origin) using Ub-AMC as substrate preincubated for 20 mins followed by substrate addition measured after 50 mins
T3 sequence (Q96K76 whole entry): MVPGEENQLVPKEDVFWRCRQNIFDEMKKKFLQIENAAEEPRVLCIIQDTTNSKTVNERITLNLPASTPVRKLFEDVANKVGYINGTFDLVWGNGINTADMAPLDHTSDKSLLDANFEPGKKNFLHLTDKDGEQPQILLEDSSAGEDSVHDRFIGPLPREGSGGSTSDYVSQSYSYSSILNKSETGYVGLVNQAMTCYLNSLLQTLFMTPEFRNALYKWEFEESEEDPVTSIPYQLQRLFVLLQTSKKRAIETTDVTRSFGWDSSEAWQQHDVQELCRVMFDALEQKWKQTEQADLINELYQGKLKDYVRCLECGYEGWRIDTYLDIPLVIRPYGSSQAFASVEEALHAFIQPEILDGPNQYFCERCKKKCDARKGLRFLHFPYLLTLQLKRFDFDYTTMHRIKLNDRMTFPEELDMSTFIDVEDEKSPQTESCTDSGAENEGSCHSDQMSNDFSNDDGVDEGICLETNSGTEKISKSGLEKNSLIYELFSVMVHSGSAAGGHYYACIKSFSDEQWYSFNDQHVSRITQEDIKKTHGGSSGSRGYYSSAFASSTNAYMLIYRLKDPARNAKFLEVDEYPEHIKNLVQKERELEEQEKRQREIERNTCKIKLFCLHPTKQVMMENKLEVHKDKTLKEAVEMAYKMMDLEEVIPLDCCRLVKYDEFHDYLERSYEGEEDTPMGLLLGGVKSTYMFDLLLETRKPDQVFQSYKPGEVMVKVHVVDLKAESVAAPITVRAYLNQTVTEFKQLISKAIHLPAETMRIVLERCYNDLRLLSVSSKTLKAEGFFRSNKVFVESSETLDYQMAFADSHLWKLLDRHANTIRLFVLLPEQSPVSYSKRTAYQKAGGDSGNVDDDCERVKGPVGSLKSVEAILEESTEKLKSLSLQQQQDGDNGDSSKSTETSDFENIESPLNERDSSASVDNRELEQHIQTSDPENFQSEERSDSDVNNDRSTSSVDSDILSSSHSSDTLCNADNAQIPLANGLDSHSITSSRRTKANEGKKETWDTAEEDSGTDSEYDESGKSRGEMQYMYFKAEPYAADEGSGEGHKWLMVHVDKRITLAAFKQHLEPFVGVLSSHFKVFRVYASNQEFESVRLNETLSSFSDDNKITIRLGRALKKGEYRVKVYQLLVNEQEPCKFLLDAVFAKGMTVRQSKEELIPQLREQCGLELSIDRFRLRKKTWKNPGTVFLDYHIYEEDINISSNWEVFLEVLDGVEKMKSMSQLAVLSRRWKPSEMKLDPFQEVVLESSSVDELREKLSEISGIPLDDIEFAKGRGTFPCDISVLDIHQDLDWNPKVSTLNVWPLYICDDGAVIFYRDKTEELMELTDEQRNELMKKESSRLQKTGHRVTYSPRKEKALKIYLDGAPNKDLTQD

[12] = target: Ubiquitin carboxyl-terminal hydrolase 7 (Homo sapiens, UniProt Q93009, C223A); assay: Inhibition of human full-length wild-type His-tagged catalytic USP7 […] expressed in baculovirus infected Sf9 cells using Ub-AMC as substrate preincubated for 30 mins followed by substrate addition measured after 1 hrs by fluorometric analysis
Sequence of Ubiquitin carboxyl-terminal hydrolase 7 (Homo sapiens, UniProt Q93009, C223A) (Q93009 whole entry C223A): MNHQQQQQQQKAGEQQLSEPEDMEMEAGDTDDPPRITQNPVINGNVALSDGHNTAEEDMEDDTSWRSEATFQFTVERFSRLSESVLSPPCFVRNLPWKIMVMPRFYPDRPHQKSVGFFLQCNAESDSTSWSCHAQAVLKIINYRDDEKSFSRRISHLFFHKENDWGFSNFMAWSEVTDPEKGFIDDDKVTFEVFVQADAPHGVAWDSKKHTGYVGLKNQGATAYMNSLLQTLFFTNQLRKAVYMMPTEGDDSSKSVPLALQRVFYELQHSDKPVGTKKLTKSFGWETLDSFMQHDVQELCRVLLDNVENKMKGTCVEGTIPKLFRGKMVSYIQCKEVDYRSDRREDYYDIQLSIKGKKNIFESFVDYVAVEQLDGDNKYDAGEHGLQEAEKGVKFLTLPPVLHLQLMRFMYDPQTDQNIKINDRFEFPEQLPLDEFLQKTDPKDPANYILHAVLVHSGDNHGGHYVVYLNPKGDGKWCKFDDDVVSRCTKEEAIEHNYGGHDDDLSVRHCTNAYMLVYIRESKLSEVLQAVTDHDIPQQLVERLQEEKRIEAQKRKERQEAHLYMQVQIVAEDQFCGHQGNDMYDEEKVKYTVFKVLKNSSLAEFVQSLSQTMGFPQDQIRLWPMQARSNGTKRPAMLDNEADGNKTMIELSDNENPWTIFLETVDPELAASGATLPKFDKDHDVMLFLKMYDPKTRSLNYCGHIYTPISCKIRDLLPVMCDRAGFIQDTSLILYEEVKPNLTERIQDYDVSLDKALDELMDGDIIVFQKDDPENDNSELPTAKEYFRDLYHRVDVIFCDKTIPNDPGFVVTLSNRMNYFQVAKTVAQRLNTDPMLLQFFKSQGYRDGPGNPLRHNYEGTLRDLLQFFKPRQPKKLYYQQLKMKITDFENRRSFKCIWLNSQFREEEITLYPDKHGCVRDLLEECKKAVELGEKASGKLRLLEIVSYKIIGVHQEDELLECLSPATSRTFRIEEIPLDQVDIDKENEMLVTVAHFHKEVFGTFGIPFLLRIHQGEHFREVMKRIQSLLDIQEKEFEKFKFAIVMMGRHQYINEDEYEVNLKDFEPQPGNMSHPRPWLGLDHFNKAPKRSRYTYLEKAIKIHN

T1 sequence (Q93009 whole entry): as the sequence (Q93009 whole entry C223A) above, with A223C counted along it

Structure (SMILES): O=C(Nc1ccc2c(c1)S(=O)(=O)C=C2)c1cc([N+](=O)[O-])c(Sc2c(Cl)cncc2Cl)s1
- pIC50 [1]: 7.00

Structure (SMILES): CC(CC(=O)N1CCC(O)(C(C)n2cnc3cc[nH]c3c2=O)CC1)c1ccccc1 (centres undefined)
- pIC50 [2]: > 6.30

Structure (SMILES): CCCc1cc2c(=O)n(C(C)C3(O)CCN(C(=O)CC(C)c4ccccc4)CC3)cnc2s1 (centres undefined)
- pIC50 [2]: 6.00 to 6.52

Structure (SMILES): CC(=O)Nc1ccc2c(=O)n(C(C)C3(O)CCN(C(=O)CC(C)c4ccccc4)CC3)cnc2c1 (centres undefined)
- pIC50 [2]: > 6.70

Structure (SMILES): CC1=CS(=O)(=O)c2cc(NC(=O)c3cc([N+](=O)[O-])c(Sc4c(Cl)cncc4Cl)s3)ccc21
- pIC50 [1]: 6.77

Structure (SMILES): O=C(Nc1cccc(CN2CCCC2)c1)c1ccc2nc3c(c(Cl)c2c1)CCCC3
- pIC50 [1]: 5.09

Structure (SMILES): C[C@@]12CCCc3coc(c31)C(=O)c1cc3c(cc12)C(=O)C=CC3=O [XESTOQUINONE]
- pIC50 [3]: 6.89

Structure (SMILES): COC(=O)[C@]12CCC(C)(C)C[C@H]1[C@H]1C(=O)C=C3[C@@]4(C)C=C(C#N)C(=O)C(C)(C)[C@@H]4CC[C@@]3(C)[C@]1(C)CC2 [BARDOXOLONE METHYL]
- pIC50 [4]: 4.66

Structure (SMILES): C[C@@]12CCCc3coc(c31)C(=O)c1cc3c(cc12)C(=O)C=C(C1=CC(=O)c2cc4c(cc2C1=O)C(=O)c1occ2c1[C@@]4(C)CCC2)C3=O
- pIC50 [3]: 6.31

Structure (SMILES): CC1CS(=O)(=O)c2cc(NC(=O)c3cc([N+](=O)[O-])c(Sc4c(Cl)cncc4Cl)s3)ccc21 (centres undefined)
- pIC50 [1]: 7.12

Structure (SMILES): CC(CC(=O)N1CCC(O)(C(C)n2cnn3cccc3c2=O)CC1)c1ccccc1 (centres undefined)
- pIC50 [2]: 6.00 to 6.70

Structure (SMILES): CN(C)CCCNC1CS(=O)(=O)c2cc(NC(=O)c3cc([N+](=O)[O-])c(Sc4c(Cl)cncc4Cl)s3)ccc21 (centres undefined)
- pIC50 [1]: 6.70

Structure (SMILES): CC(CC(=O)N1CCC(O)(C(C)n2cnc3c(cnn3C)c2=O)CC1)c1ccccc1 (centres undefined)
- pIC50 [2]: 6.00 to 6.70

Structure (SMILES): COC(=O)[C@]12CCC(C)(C)C[C@H]1[C@H]1C(=O)C=C3[C@@]4(C)CC(C#N)C(=O)C(C)(C)[C@@H]4CC[C@@]3(C)[C@]1(C)CC2 (some centres undefined)
- pIC50 [5]: 4.60

Structure (SMILES): CCc1c(-c2ccc3c(cnn3C)c2)cnc(N)c1-c1ccc(O)cc1
- pIC50 [6]: < 4.20
- pIC50 [7]: 5.70

Structure (SMILES): CC(=O)c1cc([N+](=O)[O-])c(Sc2ccccc2)s1
- pIC50 [8]: < 4.30

Structure (SMILES): COC(=O)/C=C/CNC(=O)c1cc([N+](=O)[O-])c(Sc2cccc(Cl)c2Cl)s1
- pIC50 [9]: 6.24

Structure (SMILES): C[C@@]12CCCc3coc(c31)C(=O)c1cc3c(=O)c4c(c(=O)c3cc12)c1c(=O)c2cc3c(cc2c(=O)c1c1c(=O)c2cc5c(cc2c(=O)c41)[C@]1(C)CCCc2coc(c21)C5=O)[C@]1(C)CCCc2coc(c21)C3=O
- pIC50 [3]: 6.12

Structure (SMILES): C[C@H]1[C@H](C)CC[C@]2(C(=O)O)CC[C@]3(C)C(=CC[C@@H]4[C@@]5(C)CC[C@H](O)C(C)(C)[C@@H]5CC[C@]43C)[C@H]12 [URSOLIC ACID]
- pIC50 [10]: 5.15
- pIC50 [11]: 4.59

Structure (SMILES): CC(=O)c1cnc(Sc2c(Cl)cncc2Cl)s1
- pIC50 [1]: 4.65

Structure (SMILES): O=C(Nc1ccc2c(c1)S(=O)(=O)CC2)c1cc([N+](=O)[O-])c(Sc2c(Cl)cncc2Cl)s1
- pIC50 [1]: 6.89

Structure (SMILES): CN(CCCNC(=O)c1ccc2nc3c(c(Cl)c2c1)CCCC3)Cc1ccccc1
- pIC50 [12]: 4.55
